Structures are written as SMILES.

Assay type in all cases: cell-based
In experiment [1] the target is T1, human calcitonin receptor (CTR) in COS-7 cells (Homo sapiens, UniProt P30988).
T1 construct: expressed in transfected cells; host or cells: COS-7 (COS7-human CTR Clone #2)
T1 sequence (P30988 25-474): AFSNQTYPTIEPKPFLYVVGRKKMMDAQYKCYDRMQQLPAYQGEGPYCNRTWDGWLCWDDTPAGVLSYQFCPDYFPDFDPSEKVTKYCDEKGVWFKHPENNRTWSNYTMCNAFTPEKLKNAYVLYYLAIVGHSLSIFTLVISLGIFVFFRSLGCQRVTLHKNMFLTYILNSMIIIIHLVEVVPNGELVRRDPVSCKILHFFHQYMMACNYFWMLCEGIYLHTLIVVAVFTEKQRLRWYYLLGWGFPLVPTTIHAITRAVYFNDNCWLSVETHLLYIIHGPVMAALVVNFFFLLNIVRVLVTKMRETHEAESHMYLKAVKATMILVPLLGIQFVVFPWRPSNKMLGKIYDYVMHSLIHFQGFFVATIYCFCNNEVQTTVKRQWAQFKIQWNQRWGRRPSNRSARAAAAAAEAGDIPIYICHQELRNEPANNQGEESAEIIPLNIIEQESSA
The experiment is described as follows: Calcitonin Receptor (CTR) cAMP Assay. Particulars: COS7-human CTR Clone #2 cells; read-out: Calcitonin Receptor cAMP Stimulation Activity: EC50. The text has this: Calcitonin Receptor (CTR) cAMP Assay
The calcitonin receptor (CTR) belongs to the subfamily of GPCRs known as the secretin or ‘B’ family of GPCRs. Like other class B1 GPCRs, the CT receptor family is canonically coupled to Gs-mediated cAMP production, and measurement of cAMP accumulation has been the primary assay used to determine peptide selectivity and potency.
(§1) To optimize functional activity directed toward Gas coupling, COS-7 cells were stably transfected with human calcitonin receptor (CTR) to create COS7-human CTR Clone #2 stable cell line. 100× concentration of compound working solutions were prepared with 4-fold serial dilution in 384-well Echo LDV plate (Labcyte, Cat #LP-0200-BC). 200 nL/well 100× concentration of compound working solutions were moved to 384-well white microplate (Perkin Elmer, Cat #6007680) using Labcyte ECHO550. 1×10^5 cells/mL COS7-human CTR Clone #2 cell suspensions prepared with assay buffer [HBSS containing 20 mM HEPES (Gibco, Cat #15630-080), 0.5 mM IBMX (Sigma, Cat #15879) and 0.1% Casein (Sigma, Cat #C4765)], 20 μL cell suspensions were added to each well of previous generated assay plate which already contains 200 nL compound at 100× concentration using ThermoFisher Multidrop Combi (2000 cells/well). Seal the plate and incubate at 37° C. with 5% CO2 for 30 min.
After incubation, the cAMP assay signal was generated using cAMP dynamic 2 kit (Revvity, Cat #62AM4PEC). 10 μL cAMP-d2 working solution was added to each well, followed by […] Anti-cAMP antibody-cryptate working solution which was added to each well using CERTUS FLEX LIQUID DISPENSER. The samples were then incubated at room temperature for 1 hour protected from light. the fluorescence was read at 665 and 615 nm with Reader PerkinElmer EnVision 2105.

Experiment [2] concerns the target human calcitonin receptor (CTR) and RAMP3 (AMY3) in COS-7 cells (Homo sapiens, UniProt O60896+P30988). Description: Amylin Receptor cAMP Assay II. Particulars: value marked **: Amylin Receptor cAMP Assay II; COS-7/AMY3 cells; read-out: Amylin Receptor cAMP Stimulation Activity: EC50. The source says:
Amylin Receptor cAMP Assay II
AMYRs are heterodimers of the class B calcitonin (CT) G-protein-coupled receptor (CTR) and receptor activity-modifying proteins (RAMPs). All three RAMPs can interact with the CTR and form AMY1, AMY2, AMY3 with RAMP1, RAMP2 and RAMP3, respectively. Like other class B1 GPCRs, the CT receptor family is canonically coupled to Gs-mediated cAMP production, and measurement of cAMP accumulation has been the primary assay used to determine peptide selectivity and potency.
To optimize functional activity directed toward Gas coupling, COS-7 cells were stably transfected with human calcitonin receptor (CTR) and RAMP3, simultaneously. 100× concentration of compound working solutions were prepared with 4-fold serial dilution in 384-well Echo LDV plate (Labcyte, Cat #LP-0200-BC). 200 nL/well 100× concentration of compound working solutions were moved to 384-well white microplate (Perkin Elmer, Cat #6007680) using Labcyte ECHO550. […]
After incubation, the cAMP assay signal was generated using cAMP dynamic 2 kit (Revvity, Cat #62AM4PEC). […] The samples were then incubated at room temperature for 1 hour protected from light. the fluorescence was read at 665 and 615 nm with Reader PerkinElmer EnVision 2105.

Another experiment has as its target Amylin Receptor (Homo sapiens, UniProt O60896+P30988). Description: Amylin Receptor cAMP stimulation, assay version (I or II) not marked. Particulars: values without footnote mark; assay I or II not stated. The protocol:
To optimize functional activity directed toward Gas coupling, COS-7 cells were stably transfected with human calcitonin receptor (CTR) and RAMP3, simultaneously. 100× concentration of compound working solutions were prepared (Agilent Technologies Bravo) with 4-fold serial dilution in 384-well Echo LDV plate (Labcyte, Cat #LP-0200). 100 nL/well 100× concentration of compound working solutions were moved to 384-well white low volume plate (Greiner, Cat #784075) using Labcyte ECHO550. 1×10^5 cells/mL COS-7/CTR or COS-7/AMY3 (HD Biosciences) cell suspensions prepared with assay buffer [DPBS containing 0.5 mM IBMX (Sigma, Cat #15879) and 0.1% BSA (GENVIEW, Cat #FA016-100 g)], 10 μL cell suspensions were added to each well of previous generated assay plate which already contains 100 nL compound at 100× concentration using ThermoFisher Multidrop Combi (1000 cells/well). Seal the plate and incubate at 37° C. with 5% CO2 for 30 min.
After incubation, the cAMP assay signal was generated using cAMP Hi-range Kit (Cisbio). 5 μL cAMP-d2 working solution was added to each well, followed by 5 μL Anti-cAMP antibody-cryptate working solution which was added to each well using ThermoFisher Multidrop Combi. The samples were then incubated at room temperature for 1 hour protected from light. the fluorescence was read at 665 and 615 nm with Reader PerkinElmer EnVision.
as §1, with “and RAMP3, simultaneously.” for “to create COS7-human CTR Clone #2 stable cell line.”, “COS-7/AMY3” for “COS7-human CTR Clone #2”
After incubation, the cAMP assay signal was generated using cAMP dynamic 2 kit (Revvity, Cat #62AM4PEC). 10 μL cAMP-d2 working solution was added to each well, followed by 10 μL Anti-cAMP antibody-cryptate working solution which was added to each well using CERTUS FLEX LIQUID DISPENSER. The samples were then incubated at room temperature for 1 hour protected from light. the fluorescence was read at 665 and 615 nm with Reader PerkinElmer EnVision 2105.

Chain of Amylin Receptor (O60896 24-148, one chain of several): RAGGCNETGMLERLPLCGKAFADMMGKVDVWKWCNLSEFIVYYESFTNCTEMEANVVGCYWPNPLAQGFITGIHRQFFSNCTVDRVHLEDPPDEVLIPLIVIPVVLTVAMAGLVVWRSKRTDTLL
Chain of human calcitonin receptor (CTR) and RAMP3 (AMY3) in COS-7 cells (O60896 24-148, one chain of several): as above

As for `Cc1nnc(-c2c(CCC3CCN(C(=O)OCc4ccccc4)CC3)nc(CC(C)C)c(C(N)=O)c2-c2ccc(C(=O)NCc3ccc(F)c(F)c3)s2)o1` [Compound 205, Benzyl 4-[2-[5-carbamoyl-4-[5-[(3,4-difluorophenyl)methylcarbamoyl]-2-thienyl]-6-isobutyl-3-(5-methyl-1,3,4-oxadiazol-2-yl)-2-pyridyl]ethyl]piperidine-1-carboxylate], the figures for the EC50 in experiment [1] and in experiment [2] were 6 nM and 66 nM, respectively.
As for `COc1cccc2c1CC[C@H]2Nc1nccc2cc(-c3c(C(N)=O)c(CC(C)C)nc(CCC4CCOCC4)c3-c3nnc(C)o3)sc12` [Compound 208, 4-{7-[(R)-4-methoxy-1-indanylamino]-1-thia-6-aza-2-indenyl}-2-isobutyl-5-(5-methyl-1,3,4-oxadiazol-2-yl)-6-[2-(tetrahydro-2H-pyran-4-yl)ethyl]nicotinamide], the EC50 (usually the concentration giving half of the maximal effect) turned out to be 0.581 nM in experiment [1] and 18.9 nM at Amylin Receptor.
`CCc1nc(CC(C)C)c(C(N)=O)c(-c2cc3ccnc(N[C@@H]4CCc5ccc(F)cc54)c3s2)c1-c1nnc(C)o1` [Compound 209, 4-{7-[(R)-6-fluoro-1-indanylamino]-1-thia-6-aza-2-indenyl}-6-ethyl-2-isobutyl-5-(5-methyl-1,3,4-oxadiazol-2-yl)nicotinamide]: it took 96.9 nM to reach a half-maximal effect on Amylin Receptor (EC50).
Molecule `Cc1nnc(-c2c(COc3ccc(F)cc3)nc(CC(C)C)c(C(N)=O)c2-c2ccc(C(=O)N[C@@H]3CCc4ccccc43)s2)o1` [Compound 210, N—[(R)-1-indanyl]-5-{3-carbamoyl-6-[(p-fluorophenoxy)methyl]-2-isobutyl-5-(5-methyl-1,3,4-oxadiazol-2-yl)-4-pyridyl}-2-thenamide] gave an EC50 at Amylin Receptor of 546 nM.

Source of the values: patent US20250042916A1 (ACONCAGUA BIO, INC., priority 2023, published 2025).
